Experimental data from ChEMBL document CHEMBL1125935, “(Phenylmethoxy)phenyl derivatives of omega-oxo- and omega-tetrazolylalkanoic acids and related tetrazoles. Synthesis and evaluation as leukotriene D4 receptor antagonists” (J Med Chem, 1991).

Legend:
[1] = organism: Cavia porcellus; assay: Antagonistic activity with LTC4 as agonist in trachea tissue of guinea pig smooth muscles.; type: functional, Muscle tissue
[2] = organism: Cavia porcellus; assay: Antagonistic activity with LTD4 as agonist in trachea tissue of guinea pig smooth muscles.; type: functional, Muscle tissue
[3] = organism: Cavia porcellus; assay: Antagonistic activity with LTE4 as agonist in trachea tissue of guinea pig smooth muscles.; type: functional, Muscle tissue
[4] = organism: Cavia porcellus; assay: pA2 value on guinea pig ileum tissue in presence of LTD4 as agonist; type: functional; details: read-out: pA2 (converted)
[5] = organism: Cavia porcellus; assay: pA2 value on guinea pig ileum tissue in presence of LTE4 as agonist; type: functional; details: read-out: pA2 (converted)
[6] = organism: Cavia porcellus; assay: Antagonistic activity with Histamin as agonist in ileum tissue of guinea pig smooth muscles.; type: functional
[7] = organism: Cavia porcellus; assay: Antagonistic activity with LTC4 as agonist in ileum tissue of guinea pig smooth muscles.; type: functional
[8] = organism: Cavia porcellus; assay: Antagonistic activity with LTD4 as agonist in ileum tissue of guinea pig smooth muscles.; type: functional
[9] = organism: Cavia porcellus; assay: Antagonistic activity with LTE4 as agonist in ileum tissue of guinea pig smooth muscles.; type: functional
[10] = organism: Cavia porcellus; assay: pA2 value on guinea pig trachea tissue in presence of LTD4 as agonist; type: functional; details: read-out: pA2 (converted)
[11] = organism: Cavia porcellus; assay: pA2 value on guinea pig trachea tissue in presence of LTE4 as agonist; type: functional; details: read-out: pA2 (converted)
[12] = organism: Cavia porcellus; assay: Antagonistic activity with Bradykinin as agonist in ileum tissue of guinea pig smooth muscles.; type: functional
[13] = organism: Cavia porcellus; assay: pA2 value on guinea pig parenchyma tissue in presence of LTE4 as agonist; type: functional; details: read-out: pA2 (converted)
[14] = organism: Cavia porcellus; assay: Antagonistic activity with Carbamylcholine as agonist in trachea tissue of guinea pig smooth muscles.; type: functional, Muscle tissue
[15] = organism: Cavia porcellus; assay: Antagonistic activity with LTD4 as agonist in parenchyma tissue of guinea pig smooth muscles.; type: functional, Muscle tissue
[16] = organism: Cavia porcellus; assay: Antagonistic activity with LTE4 as agonist in parenchyma tissue of guinea pig smooth muscles.; type: functional, Muscle tissue
[17] = organism: Cavia porcellus; assay: Antagonistic activity with U-46,619 as agonist in trachea tissue of guinea pig smooth muscles.; type: functional, Muscle tissue
[18] = organism: Cavia porcellus; assay: pA2 value on guinea pig parenchyma tissue in presence of LTD4 as agonist; type: functional; details: read-out: pA2 (converted)

**Q.** Which pKB [1] does the source give for `CCCc1c(COc2ccc(Cc3nnn(CCCc4nnn[n-]4)n3)cc2)ccc(C(C)=O)c1O.[Na+]` here?
**A.** 5.67

**Q.** And the pKB [2]?
**A.** 6.69

**Q.** And the pKB [3]?
**A.** 7.57

**Q.** And the Kb [4]?
**A.** 0.012 µM

**Q.** What about the Kb [5] of the same molecule?
**A.** 0.00363 µM

**Q.** What about the pKB [6] of the same molecule?
**A.** <5

**Q.** What about the pKB [7] of the same molecule?
**A.** 5.39

**Q.** And the pKB [8]?
**A.** 7.84

**Q.** What about the pKB [9] of the same molecule?
**A.** 8.37

**Q.** And the Kb [10]?
**A.** 0.204 µM

**Q.** And the Kb [11]?
**A.** 0.0269 µM

**Q.** Which results are given for `CCc1c(COc2ccc(C(=O)CC(C)(C)CC(=O)[O-])cc2)ccc(C(C)=O)c1O.[Na+]`?
**A.** pKB [1]: <5; pKB [2]: 6.52; pKB [3]: 7.09; Kb [5]: 0.00977 µM; pKB [12]: <5; pKB [6]: <5; pKB [7]: <5; pKB [8]: 7.46; pKB [9]: 7.73; Kb [13]: 0.0363 µM; pKB [14]: <5; pKB [15]: 6.74; pKB [16]: 7.13; pKB [17]: <5; Kb [11]: 0.0631 µM; Kb [18]: 0.138 µM
